The values below are quoted from earlier work in EP3021668B1, “EMULSIFIABLE CONCENTRATE COMPRISING PESTICIDE, ALKYL LACTATE, FATTY AMIDE AND ACETOPHENONE” (BASF SE, priority 2013, dated 2015).

The conditions of data set [1]: pure solvents; according to the Annex III of European Union Directive 67/548/EEC.
For data set [2] the following is noted: at 20 °C.

For the molecule `CCCC[C@H](CC)COC(=O)C(C)O` (stereo partly drawn) [(S)-2-ethylhexyl lactate], the eye toxicity classification result in data set [1] was “R36 "Irritating to eyes"”.

For the molecule `COC(=O)N(OC)c1ccccc1COc1ccn(-c2ccc(Cl)cc2)n1` [pyraclostrobin], the soluble in water result in data set [2] is “about 2 mg/l”.

For the molecule `Cn1cc(C(=O)Nc2ccccc2-c2cc(F)c(F)c(F)c2)c(C(F)F)n1` [fluxapyroxad], the soluble in water result in data set [2] is given as “about 4 mg/l”.

On to `CC(=O)c1ccccc1` [acetophenone], for which, in data set [1], the eye toxicity classification entry is given as “R36 "Irritating to eyes"”.
